Reference: patent US20030166609A1, “Medicine containing polysacccharide substances for activating apoptosis” (priority 2000, published 2003)
Each block holds one substance with its values, some of them ahead of it.

How the values were obtained:
Format in all cases: cell-based, human
[1] = tested on: Fas receptors at the surface of Hep-G2 liver cells; assay: Fas receptors at the surface of Hep-G2 liver cells, fluorescence by flow cytometry; details: for Fluorescence Ratio: vs control
Experimental: Work was carried out on a culture of liver cells named Hep-G2 (marketed by ECACC (European collection of human genetic cell lines)).
The same procedure is carried out as in example 1, replacing the T lymphocytes of the Jurkat type with Hep-G2 liver cells.
The presence of Fas receptors at the surface of the cells was measured by fluorescence, as in example 1, and the results obtained are expressed as in example 1, in the form of FIGS. 9 to 12. […]
For this, the same procedure as in example 1 was carried out.

[2] = tested on: TNF alpha receptors (p55 TNF receptor) on Jurkat-type cells; assay: TNF alpha receptors at the surface of Jurkat-type cells, fluorescence by flow cytometry
Experimental: In this example, the effect of dextran sulfate at a concentration of 0.1 mg/ml on the increase in the number of TNF alpha receptors on Jurkat-type cells was measured.
The medium used for culturing the Jurkat-type cells is that marketed by the company Life Technologies under the name “RPMI 1640 medium”; this medium is described by Moore et al. in the publication “A.M.A.” 199, 519 (1967).
10^6 T lymphocytes are suspended in 5 ml of this medium. The culturing was carried out in an incubator at a temperature of 37° C. and in an atmosphere containing 5% CO2. After incubation for 24 hours, the cells multiplied to reach 2×10^6 cells.
(§1) These cells are recovered by centrifugation, and are washed in an isotonic PBS buffer. A further incubation is then carried out in 1 ml of the abovementioned medium at 4° C. and in an atmosphere containing 5% CO2, for 45 minutes in the presence of an anti-human p55 TNF receptor, clone MR1-2, ref. MON9062 produced in mice by Genzyme SA, diluted to 1/50 in PBS containing 1% of bovine serum albumin (BSA).
The cells are recovered and are washed with the isotonic PBS buffer. A further incubation is carried out with an antibody against mouse immunoglobulins (IgGs) (produced in the goat) coupled to fluorescein isothiocyanate, diluted to 1/50 in PBS containing 1% of BSA. […]
The influence of the dextran sulfate is determined by introducing 0.1 mg of dextran sulfate per ml into the culture medium.
The presence of TNF alpha receptors at the surface of the cells was measured by fluorescence as in the previous examples.
In FIG. 17, in which the Y-axis represents the number (to within one multiplication factor) of TNF alpha receptors at the surface of the cells, and in which the X-axis represents the intensity of fluorescence (arbitrary units), the Gaussian distribution of the fluorescence for the control sample (curve T1) and for the sample which was incubated in the presence of 0.1 mg/ml of dextran sulfate (curve C17) is represented in the form of a curve.

[3] = tested on: Fas receptors at the surface of T lymphocytes (of the Jurkat type); assay: Fas receptors at the surface of Jurkat-type T lymphocytes, fluorescence by flow cytometry
Experimental: Work was carried out on a culture of immortalized human cells consisting of T lymphocytes (of the Jurkat type).
The medium used for culturing the Jurkat-type cells is that marketed by the company Life Technologies under the name “RPMI 1640 Medium”; this medium is described by Moore et al. in the publication “A.M.A.” 199, 519 (1967).
10^6 T lymphocytes of the Jurkat type were suspended in 5 ml of this medium. The culturing was carried out in an incubator at a temperature of 37° C. and in an atmosphere containing 5% CO2.
After incubation for 24 hours, the cells multiplied to reach 2×10^6 cells.
as §1, with “incubation of these 2×10^6 cells” for “incubation”, “anti-Fas” for “anti-human p55 TNF”, “sold under the catalog number 05-201” for “clone MR1-2, ref. MON9062 produced in mice”, “Euromedex,” for “Genzyme SA,”
At the end of this incubation, the cells are collected and are washed with the isotonic PBS buffer. After washing, a further incubation of the cells is carried out for 45 minutes at 4° C. in the presence of an antibody against hamster immunoglobulins (IgGs) (produced in the goat) which is coupled to fluorescein isothiocyanate, diluted to 1/50 in PBS containing 1% of BSA (marketed by Euromedex, No. AP128F).
Controls were prepared by incubating the T lymphocytes of the Jurkat type only with the second antibody (goat anti-hamster IgG coupled to fluorescein isothio-cyanate).
The increase in the number of Fas receptors at the surface of the cells, under the action of dextran sulfate, is then determined.
Consequently, the fluorescence of the cells (which is proportional to the number of receptors present at the surface) is determined in the absence of dextran sulfate and in the presence of dextran sulfate for a number of solutions at various concentrations. The ratio of the fluorescence in the absence of dextran sulfate to the fluorescence with dextran sulfate is then calculated. In the following text, the result of this calculation is called “ratio”.
Various assays are carried out by introducing into the culture medium, at time t=0 of the experiment, dextran sulfate at the following doses: 0.2 mg/ml, 0.1 mg/ml, 0.02 mg/ml and 0.002 mg/ml; the dextran sulfate is that marketed by the company Sigma.
After various times of incubation with the dextran sulfate, the presence of Fas receptors at the surface of the cells is detected by fluorescence. This fluorescence is induced by the fluorescein isothio-cyanate coupled to the anti-Fas receptor antibodies which are attached to the Fas receptors, and was measured by passing a cell sample containing 10^4 cells through a device such as those which function by flow cytometry, in this case that marketed by the company Beckton Dickinson under the name “FACS Scan Flow Cytometer”. The intensity of the fluorescence, which is expressed in arbitrary units, therefore depends on the number of Fas receptors present at the surface of the cells making up the sample.
For each sample, the curve representing the variation in fluorescence as a function of said number of cells having receptors at their surface is constructed on a graph on which the fluorescence (arbitrary units) is recorded on the X axis and the number of cells (to within one multiplication factor) having receptors at their surface is recorded on the Y axis; this curve reflects a Gaussian-type distribution of the fluorescence.
The various assays carried out make it possible to classify the cell populations as a function of the fluorescence, i.e. as a function of the number of receptors present at the surface of the cells.
The different maximum fluorescence values for each assay, which reflect the different numbers of receptors present at the surface, depend on the active products used in the various assays. […]

[4] = Hep-G2, 0.02 mg/ml dextran sulfate (0.2 mg/ml given in source), 6 h (curve C13)
[5] = Hep-G2, 0.02 mg/ml dextran sulfate (0.2 mg/ml given in source), 24 h (curve C14)
[6] = Hep-G2, 0.02 mg/ml dextran sulfate (0.2 mg/ml given in source), 48 h (curve C15)
[7] = Hep-G2, 0.02 mg/ml dextran sulfate (0.2 mg/ml given in source), 72 h (curve C16)
[8] = Hep-G2, dextran sulfate 0.002 mg/ml (curve C12)
[9] = Hep-G2, dextran sulfate 0.02 mg/ml (curve C11)
[10] = Hep-G2, dextran sulfate 0.1 mg/ml (curve C10)
[11] = Hep-G2, dextran sulfate 0.2 mg/ml (curve C9)

Fluorescence Value measured (peak of curve) ([3]; 0.02 mg/ml dextran sulfate, 6 h (curve C41)): 100 arbitrary units
Fluorescence Ratio ([3]; 0.02 mg/ml dextran sulfate, 6 h (curve C41), vs control): 2
Fluorescence Value measured (peak of curve) ([3]; 0.02 mg/ml dextran sulfate, 24 h (curve C42)): 120 arbitrary units
Fluorescence Ratio ([3]; 0.02 mg/ml dextran sulfate, 24 h (curve C42), vs control): 2.4
Fluorescence Value measured (peak of curve) ([3]; 0.02 mg/ml dextran sulfate, 48 h (curve C43)): 150 arbitrary units
Fluorescence Ratio ([3]; 0.02 mg/ml dextran sulfate, 48 h (curve C43), vs control): 3
Fluorescence Value measured (peak of curve) ([3]; 0.02 mg/ml dextran sulfate, 72 h (curve C44)): 80 arbitrary units
Fluorescence Ratio ([3]; 0.02 mg/ml dextran sulfate, 72 h (curve C44), vs control): 1.6
Fluorescence Value measured (peak of curve) ([3]; dextran sulfate 0.002 mg/ml (curve C5)): 90 arbitrary units
Fluorescence Ratio ([3]; dextran sulfate 0.002 mg/ml (curve C5), vs control): 1.13
Fluorescence Value measured (peak of curve) ([3]; dextran sulfate 0.02 mg/ml (curve C4)): 200 arbitrary units
Fluorescence Ratio ([3]; dextran sulfate 0.02 mg/ml (curve C4), vs control): 2.50
Fluorescence Value measured (peak of curve) ([3]; dextran sulfate 0.1 mg/ml (curve C3)): 250 arbitrary units
Fluorescence Ratio ([3]; dextran sulfate 0.1 mg/ml (curve C3), vs control): 3.13
Fluorescence Value measured (peak of curve) ([3]; dextran sulfate 0.2 mg/ml (curve C2)): 250 arbitrary units
Fluorescence Ratio ([3]; dextran sulfate 0.2 mg/ml (curve C2), vs control without dextran sulfate): 3.13
Substance: dextran sulfate
minimum concentration for increase in the number of Fas receptors at the cell surface ([1]; Hep-G2): 0.02 mg/mL
optimum concentration for increase in the number of Fas receptors at the cell surface ([1]; Hep-G2): 0.1 mg/mL
Fluorescence Value measured (peak of curve) [1, 4]: 40 arbitrary units
Fluorescence Ratio [1, 4]: 1.6
Fluorescence Value measured (peak of curve) [1, 5]: 50 arbitrary units
Fluorescence Ratio [1, 5]: 2
Fluorescence Value measured (peak of curve) [1, 6]: 70 arbitrary units
Fluorescence Ratio [1, 6]: 2.8
Fluorescence Value measured (peak of curve) [1, 7]: 50 arbitrary units
Fluorescence Ratio [1, 7]: 2
incubation time of the maximum of the increase in the number of Fas receptors at the cell surface ([1]; Hep-G2, dextran sulfate): 48 h
Fluorescence Value measured (peak of curve) [1, 8]: 60 arbitrary units
Fluorescence Ratio [1, 8]: 1
Fluorescence Value measured (peak of curve) [1, 9]: 120 arbitrary units
Fluorescence Ratio [1, 9]: 2
Fluorescence Value measured (peak of curve) [1, 10]: 140 arbitrary units
Fluorescence Ratio [1, 10]: 2.3
Fluorescence Value measured (peak of curve) [1, 11]: 160 arbitrary units
Fluorescence Ratio [1, 11]: 2.7
Fluorescence Value measured (peak of curve) ([2]; TNF alpha receptors, dextran sulfate 0.1 mg/ml (curve C17)): 200 arbitrary units
Fluorescence Ratio ([2]; TNF alpha receptors, dextran sulfate 0.1 mg/ml, vs control): 1.14
increase in the number of TNF alpha receptors at the surface ([2]; dextran sulfate 0.1 mg/ml, called weak): 10%
incubation time of the maximum of the increase in the number of Fas receptors at the cell surface ([3]; 0.02 mg/ml dextran sulfate): 48 h
minimum concentration for increase in the number of Fas receptors at the cell surface ([3]; at greater dilution effect too diminished, higher concentration does not enhance): 0.02 mg/mL

Fluorescence Value measured (peak of curve) ([3]; Ic 0.2 mg/ml, 6 h): 80 arbitrary units
Fluorescence Ratio ([3]; Ic 0.2 mg/ml, 6 h, vs control): 1.3
Fluorescence Value measured (peak of curve) ([3]; Ic 0.2 mg/ml, 24 h): 180 arbitrary units
Fluorescence Ratio ([3]; Ic 0.2 mg/ml, 24 h, vs control): 2.7
Fluorescence Value measured (peak of curve) ([3]; Ic 0.2 mg/ml, 48 h): 125 arbitrary units
Fluorescence Ratio ([3]; Ic 0.2 mg/ml, 48 h, vs control): 2.1
Fluorescence Value measured (peak of curve) ([3]; Ic 0.2 mg/ml, 72 h): 100 arbitrary units
Fluorescence Ratio ([3]; Ic 0.2 mg/ml, 72 h, vs control): 1.7
Substance: iota-carrageenan [Ic]
incubation time of the maximum of the increase in the number of Fas receptors at the cell surface ([3]; Ic 0.2 mg/ml): 24 h
